# Experimental data as given in ChEMBL document CHEMBL3885861, “Open TG-GATES”.
# Species on record: Rattus norvegicus
# Experiment: Open TG-GATES - Regimen: Single
# Format: toxicity, organism-based, Sprague-Dawley
# Parameters: regimen Single, gender Male, age 6 weeks
# Conditions: in vivo, po, 50 mg/kg, route gavage, dose level Middle; for APTT / Bas / Eos / Fbg / Hb / Ht / Lym / MCHC / MCV / Mono / Neu / PT / Plat / RBC / Ret / WBC: tissue Blood; for KIDNEY_L / KIDNEY_R / KIDNEY_TOTAL: tissue Kidney; for LIVER: tissue Liver; for ALP / ALT / AST / BUN / CRE / Ca / Cl / DBIL / GLC / IP / K / LDH / Na / PL / RALB / TBIL / TC / TG / TP / gamma-GTP: tissue Plasma
smiles,measurement,setting,value
C1CCC(C(CC2CCCCN2)C2CCCCC2)CC1 (centres undefined) [PERHEXILINE],TERMINAL_BW,3 h,207.9 g
same,APTT,3 h,22 s
same,Bas,3 h,0%
same,Eos,3 h,0.8%
same,Fbg,3 h,319.8 mg/dL
same,Hb,3 h,13.6 g/dL
same,Ht,3 h,40.9%
same,Lym,3 h,77.6%
same,MCHC,3 h,33.3%
same,MCV,3 h,62.5 fL
same,Mono,3 h,1.8%
same,Neu,3 h,19%
same,PT,3 h,15.7 s
same,Plat,3 h,132.9 x10_4/uL
same,RBC,3 h,656 x10_4/ul
same,Ret,3 h,6.5%
same,WBC,3 h,52.6 x10_2/uL
same,KIDNEY_L,3 h,1 g
same,KIDNEY_R,3 h,1 g
same,KIDNEY_TOTAL,3 h,2 g
same,LIVER,3 h,9.4 g
same,ALP,3 h,1767.8 IU/L
same,ALT,3 h,47.4 IU/L
same,AST,3 h,72 IU/L
same,BUN,3 h,10.8 mg/dL
same,CRE,3 h,0.1 mg/dL
same,Ca,3 h,10.8 mg/dL
same,Cl,3 h,105 meq/L
same,DBIL,3 h,0.004 mg/dL
same,GLC,3 h,164.6 mg/dL
same,IP,3 h,9.2 mg/dL
same,K,3 h,4 meq/L
same,LDH,3 h,190.6 IU/L
same,Na,3 h,140.4 meq/L
same,PL,3 h,140.2 mg/dL
same,RALB,3 h,3.1 g/dL
same,TBIL,3 h,0.012 mg/dL
same,TC,3 h,73 mg/dL
same,TG,3 h,65.8 mg/dL
same,TP,3 h,5.7 g/dL
same,gamma-GTP,3 h,0.8 IU/L
same,TERMINAL_BW,6 h,216.9 g
same,APTT,6 h,21.5 s
same,Bas,6 h,0%
same,Eos,6 h,1%
same,Fbg,6 h,325.6 mg/dL
same,Hb,6 h,13 g/dL
same,Ht,6 h,38.7%
same,Lym,6 h,72.8%
same,MCHC,6 h,33.5%
same,MCV,6 h,62.6 fL
same,Mono,6 h,2.8%
same,Neu,6 h,22.2%
same,PT,6 h,15.7 s
same,Plat,6 h,126.8 x10_4/uL
same,RBC,6 h,619.8 x10_4/ul
same,Ret,6 h,7.7%
same,WBC,6 h,94.8 x10_2/uL
same,KIDNEY_L,6 h,1.1 g
same,KIDNEY_R,6 h,1 g
same,KIDNEY_TOTAL,6 h,2.1 g
same,LIVER,6 h,9.5 g
same,ALP,6 h,1607.2 IU/L
same,ALT,6 h,40.4 IU/L
same,AST,6 h,69.8 IU/L
same,BUN,6 h,11.4 mg/dL
same,CRE,6 h,0.2 mg/dL
same,Ca,6 h,10.9 mg/dL
same,Cl,6 h,105.2 meq/L
same,DBIL,6 h,0.006 mg/dL
same,GLC,6 h,161 mg/dL
same,IP,6 h,10.1 mg/dL
same,K,6 h,4.5 meq/L
same,LDH,6 h,182.6 IU/L
same,Na,6 h,139 meq/L
same,PL,6 h,137.8 mg/dL
same,RALB,6 h,3 g/dL
same,TBIL,6 h,0.014 mg/dL
same,TC,6 h,69.2 mg/dL
same,TG,6 h,81.6 mg/dL
same,TP,6 h,5.6 g/dL
same,gamma-GTP,6 h,1 IU/L
same,TERMINAL_BW,9 h,203.5 g
same,APTT,9 h,21 s
same,Bas,9 h,0%
same,Eos,9 h,0.6%
same,Fbg,9 h,325.2 mg/dL
same,Hb,9 h,13.1 g/dL
same,Ht,9 h,39.1%
same,Lym,9 h,76.2%
same,MCHC,9 h,33.6%
same,MCV,9 h,63.4 fL
same,Mono,9 h,1.8%
same,Neu,9 h,20.2%
same,PT,9 h,15.5 s
same,Plat,9 h,130 x10_4/uL
same,RBC,9 h,617.6 x10_4/ul
same,Ret,9 h,7.4%
same,WBC,9 h,69.7 x10_2/uL
same,KIDNEY_L,9 h,1 g
same,KIDNEY_R,9 h,1 g
same,KIDNEY_TOTAL,9 h,1.9 g
same,LIVER,9 h,8.5 g
same,ALP,9 h,1598.6 IU/L
same,ALT,9 h,40.2 IU/L
same,AST,9 h,69 IU/L
same,BUN,9 h,11 mg/dL
same,CRE,9 h,0.1 mg/dL
same,Ca,9 h,10.8 mg/dL
same,Cl,9 h,105.4 meq/L
same,DBIL,9 h,0.002 mg/dL
same,GLC,9 h,169.8 mg/dL
same,IP,9 h,9.9 mg/dL
same,K,9 h,4.1 meq/L
same,LDH,9 h,238.2 IU/L
same,Na,9 h,139.2 meq/L
same,PL,9 h,137 mg/dL
same,RALB,9 h,3 g/dL
same,TBIL,9 h,0.018 mg/dL
same,TC,9 h,78.6 mg/dL
same,TG,9 h,39.4 mg/dL
same,TP,9 h,5.6 g/dL
same,gamma-GTP,9 h,1 IU/L
same,TERMINAL_BW,24 h,220 g
same,APTT,24 h,20.4 s
same,Bas,24 h,0%
same,Eos,24 h,1%
same,Fbg,24 h,309.4 mg/dL
same,Hb,24 h,13.5 g/dL
same,Ht,24 h,40.3%
same,Lym,24 h,82%
same,MCHC,24 h,33.4%
same,MCV,24 h,63.4 fL
same,Mono,24 h,2%
same,Neu,24 h,14%
same,PT,24 h,15.6 s
same,Plat,24 h,116.9 x10_4/uL
same,RBC,24 h,635.4 x10_4/ul
same,Ret,24 h,6.5%
same,WBC,24 h,92.8 x10_2/uL
same,KIDNEY_L,24 h,0.9 g
same,KIDNEY_R,24 h,1 g
same,KIDNEY_TOTAL,24 h,1.9 g
same,LIVER,24 h,10.2 g
same,ALP,24 h,1673.6 IU/L
same,ALT,24 h,43.2 IU/L
same,AST,24 h,72.8 IU/L
same,BUN,24 h,15.4 mg/dL
same,CRE,24 h,0.2 mg/dL
same,Ca,24 h,10.7 mg/dL
same,Cl,24 h,108 meq/L
same,DBIL,24 h,0 mg/dL
same,GLC,24 h,179.8 mg/dL
same,IP,24 h,7.4 mg/dL
same,K,24 h,4.4 meq/L
same,LDH,24 h,240.6 IU/L
same,Na,24 h,143.4 meq/L
same,PL,24 h,146.4 mg/dL
same,RALB,24 h,3.2 g/dL
same,TBIL,24 h,0.01 mg/dL
same,TC,24 h,72 mg/dL
same,TG,24 h,117.2 mg/dL
same,TP,24 h,5.6 g/dL
same,gamma-GTP,24 h,1 IU/L
